Values after ≈ are worked out from the molar mass of the structure shown.
What was measured:
[1] = test system: Mycobacterium tuberculosis; test: Antimycobacterial activity against Mycobacterium tuberculosis H37Rv after 14 days by broth dilution method; type: functional; conditions: 336 h
[2] = Growth inhibition of HEK293 cells at 50 uM by MTT assay relative to control; type: cell-based; conditions: human, read-out: GI
[3] = Growth inhibition of human HCT116 cells at 50 uM by MTT assay relative to control; type: cell-based, HCT-116; conditions: read-out: GI
[4] = Growth inhibition of human HCT116 cells at 1 to 40 uM by MTT assay relative to control; type: cell-based, HCT-116; conditions: read-out: GI
[5] = Growth inhibition of human MCF7 cells at 1 to 40 uM by MTT assay relative to control; type: cell-based; conditions: read-out: GI
[6] = Growth inhibition of human MCF7 cells at 50 uM by MTT assay relative to control; type: cell-based; conditions: read-out: GI
[7] = Growth inhibition of human PC3 cells at 1 to 40 uM by MTT assay relative to control; type: cell-based, PC-3; conditions: read-out: GI
[8] = Growth inhibition of HEK293 cells at 1 to 40 uM by MTT assay relative to control; type: cell-based; conditions: human, read-out: GI
[9] = Growth inhibition of human PC3 cells at 50 uM by MTT assay relative to control; type: cell-based, PC-3; conditions: read-out: GI
[10] = test system: Mycobacterium tuberculosis; test: Antimycobacterial activity against Mycobacterium tuberculosis; type: functional
[11] = Selectivity ratio of MIC for Mycobacterium smegmatis to MIC for Mycobacterium tuberculosis; type: functional
[12] = test system: Mycolicibacterium smegmatis; test: Antimycobacterial activity against Mycobacterium smegmatis; type: functional
[13] = test system: Staphylococcus epidermidis; test: Antibacterial activity against Staphylococcus epidermidis ATCC 12228 after 24 hrs; type: functional; conditions: ATCC 12228, 24 h
Micrococcus luteus = test: Antibacterial activity against Micrococcus luteus ATCC 10240 after 24 hrs; type: functional; conditions: ATCC 10240, 24 h
Staphylococcus aureus = test: Antibacterial activity against Staphylococcus aureus ATCC 25923 after 24 hrs; type: functional; conditions: ATCC 25923, 24 h
HEK293 = test: Growth inhibition of HEK293 cells up to 80 uM by MTT assay relative to control; type: cell-based; conditions: human
Enterococcus faecalis = test: Antibacterial activity against Enterococcus faecalis ATCC 51299 after 24 hrs; type: functional; conditions: ATCC 51299, 24 h
[14] = test system: Mycolicibacterium smegmatis; test: Antimycobacterial activity against Mycobacterium smegmatis ATCC 607 after 24 hrs; type: functional; conditions: ATCC 607, 24 h
Escherichia coli = test: Antibacterial activity against Escherichia coli 10536 after 24 hrs; type: functional; conditions: Escherichia coli, 10536, 24 h
Bacillus subtilis = test: Antibacterial activity against Bacillus subtilis ATCC 11774 after 24 hrs; type: functional; conditions: ATCC 11774, 24 h
Klebsiella pneumoniae = test: Antibacterial activity against Klebsiella pneumoniae ATCC BAA-2146 after 24 hrs; type: functional; conditions: ATCC BAA-2146, 24 h
Pseudomonas aeruginosa = test: Antibacterial activity against Pseudomonas aeruginosa ATCC 10145 after 24 hrs; type: functional; conditions: ATCC 10145, 24 h

## CC1(C)CC(=O)C(=CSc2ccccc2O)C(=O)C1
[1]
  MIC: 40 to 80 µg/mL (≈ 145 to 289 µM)

## CC1(C)CC(=O)C(=CNc2ccc(Br)cc2)C(=O)C1
[1]
  MIC: > 80 µg/mL

## CC1(C)CC(=O)C(=CNCc2ccc(F)cc2)C(=O)C1
[1]
  MIC: > 80 µg/mL

## CC1(C)CC(=O)C(=CNc2cccc(Br)c2)C(=O)C1
[1]
  MIC: > 80 µg/mL

## CC1(C)CC(=O)C(=CNc2ccccc2C(F)(F)F)C(=O)C1
[1]
  MIC: > 80 µg/mL

## CCCN(C=C1C(=O)CC(C)(C)CC1=O)CCC
[1]
  MIC: > 80 µg/mL

## O=C1CCCC(=O)C1=CNc1ccccc1O
[2]
  inhibition at 50 µM: 28.3%
[3]
  inhibition at 50 µM: 10.6%
[4]
  inhibition at up to 40 µM: < 20%
[5]
  inhibition at up to 40 µM: < 20%
[6]
  inhibition at 50 µM: 14.5%
[7]
  inhibition at up to 40 µM: < 20%
[1]
  MIC: 5 to 10 µg/mL (≈ 21.6 to 43.2 µM)
[8]
  inhibition at up to 40 µM: < 20%
[9]
  inhibition at 50 µM: 29.5%

## O=C1CCC(=O)C1=CNc1ccc([N+](=O)[O-])cc1F
[1]
  MIC: > 80 µg/mL

## CC1(C)CC(=O)C(=CNc2ccc([N+](=O)[O-])cc2)C(=O)C1
[1]
  MIC: > 80 µg/mL

## CC1(C)CC(=O)C(=CNc2ccccc2Br)C(=O)C1
[1]
  MIC: > 80 µg/mL

## Cc1ccc(NC=C2C(=O)CC(C)(C)CC2=O)cc1C
[1]
  MIC: > 80 µg/mL

## CC[C@@H](CO)NCCN[C@@H](CC)CO [ETHAMBUTOL]
[1]
  MIC: 1.25 µg/mL (≈ 6.12 µM)

## CCCCNC=C1C(=O)CC(C)(C)CC1=O
[1]
  MIC: > 80 µg/mL

## NNC(=O)c1ccncc1 [ISONIAZID]
[10]
  MIC: 0.02 µg/mL (≈ 0.146 µM)
[11]
  Selectivity ratio: 500 to 1000
[1]
  MIC: 0.313 µg/mL (≈ 2.28 µM)
[12]
  MIC: 25 µg/mL (≈ 182 µM)

## CC1(C)CC(=O)C(=CNc2ccccc2O)C(=O)C1
[2]
  inhibition at 50 µM: 9.03%
[3]
  inhibition at 50 µM: 20.2%
[4]
  inhibition at up to 40 µM: < 20%
[13]
  MIC: > 128 µg/mL
Micrococcus luteus
  MIC: 128 µg/mL (≈ 494 µM)
[5]
  inhibition at up to 40 µM: < 20%
[6]
  inhibition at 50 µM: 15.1%
Staphylococcus aureus
  MIC: > 128 µg/mL
[7]
  inhibition at up to 40 µM: < 20%
[1]
  MIC: 2.5 µg/mL (≈ 9.64 µM)
HEK293
  growth inhibition (GI): < 20%
Enterococcus faecalis
  MIC: > 128 µg/mL
[8]
  inhibition at up to 40 µM: < 20%
[14]
  MIC: > 80 µg/mL
Escherichia coli
  MIC: 32 to 64 µg/mL (≈ 123 to 247 µM)
Bacillus subtilis
  MIC: > 128 µg/mL
Klebsiella pneumoniae
  MIC: > 128 µg/mL
Pseudomonas aeruginosa
  MIC: > 128 µg/mL
[9]
  inhibition at 50 µM: 10.1%

## O=C1CC(c2ccccc2)CC(=O)C1=CNc1ccccc1O (stereo not given)
[2]
  inhibition at 50 µM: 52.8%
[4]
  inhibition at up to 40 µM: < 20%
[5]
  inhibition at up to 40 µM: < 20%
[6]
  inhibition at 50 µM: 16.5%
[7]
  inhibition at up to 40 µM: < 20%
[1]
  MIC: 5 to 10 µg/mL (≈ 16.3 to 32.5 µM)
[8]
  inhibition at up to 40 µM: < 20%
[9]
  inhibition at 50 µM: 20.4%

## CC1(C)CC(=O)C(=CNc2cccc(C(F)(F)F)c2)C(=O)C1
[1]
  MIC: > 80 µg/mL

## Cc1ccc(NC=C2C(=O)CC(C)(C)CC2=O)c(C)c1C
[1]
  MIC: > 80 µg/mL

## CCCNC=C1C(=O)CC(C)(C)CC1=O
[1]
  MIC: > 80 µg/mL

## CN[C@@H]1[C@H](O[C@H]2[C@H](O[C@H]3[C@H](O)[C@@H](O)[C@H](N=C(N)N)[C@@H](O)[C@@H]3N=C(N)N)O[C@@H](C)[C@]2(O)C=O)O[C@@H](CO)[C@H](O)[C@H]1O [STREPTOMYCIN]
[1]
  MIC: 1.56 µg/mL (≈ 2.68 µM)

## CC1(C)CCC(=O)C(=CNc2ccccc2O)C1=O (mixture of isomers)
[2]
  inhibition at 50 µM: 64.1%
[3]
  inhibition at 50 µM: 60.7%
[4]
  inhibition at up to 40 µM: < 20%
[5]
  inhibition at up to 40 µM: < 20%
[7]
  inhibition at up to 40 µM: < 20%
[1]
  MIC: 10 to 20 µg/mL
[8]
  inhibition at up to 40 µM: < 20%
[9]
  inhibition at 50 µM: 41.2%

## CC1(C)CC(=O)C(=CNc2ccc([N+](=O)[O-])cc2[N+](=O)[O-])C(=O)C1
[1]
  MIC: > 80 µg/mL
